Laboratory results reported in patent US6585964B1, “Method for preventing or minimizing biodegradation of a substance” (Biospherics Incorporated, priority 1999, dated 2003).
Square brackets hold non-standard residues; d marks the D form. Peptide text beside a SMILES is read from it. * marks the point of attachment. Cbz = O=C(OCc1ccccc1)*

How the values were obtained:
carboxypeptidase = conditions: compared with the L-enantiomorph, which is hydrolysed; cited from earlier work
sense of smell = experiment: Human smell test of menthol enantiomers evaporated from acetone solution in Petri dishes; type: in vivo; conditions: 0.001M solution in acetone, twenty drops, acetone evaporated at room temperature; six human subjects, test performed twice each
Method: The naturally-occurring optical isomer of menthol (1R,2S,5R)−(−) is used as a fragrance in a variety of products, such as perfumes, gums, and cigarettes. Both the natural and the unnatural (1S,2R,5S)−(+) optical isomer of menthol were obtained in 99% purity. A 0.001M solution of each enantiomer was prepared in reagent grade acetone. The solutions were allowed to equilibrate at room temperature for approximately one hour. Twenty drops of each solution were pipetted into separate glass Petri dishes. All glassware was clean. The acetone was then allowed to evaporate at room temperature. A human subject then smelled the two Petri dishes separately and recorded any sensations. The subject had been instructed to determine the presence of odor in the Petri dishes, and, if odor emanated from each, to determine whether the odors were the same or different. The test was performed twice on each of six human subjects, three female and three male. Each subject was given freshly prepared Petri dish servings to smell, and each immediately recorded his or hers impressions without communicating with the other subjects.

SMILES | action of carboxypeptidase (hydrolysis) on the compound (carboxypeptidase) | odor the same as or different from the natural form (sense of smell) | presence of odor (sense of smell)
O=C(CNC(=O)OCc1ccccc1)N[C@H](Cc1ccccc1)C(=O)O [carbobenzoxyglycyl-D-phenalalanine] (Cbz-Gly-[dF]-OH) | no measurable action |  | 
CC1CC[C@H](C(C)C)[C@@H](O)C1 (stereo partly drawn) [unnatural form of menthol, (1S,2R,5S)-(+)-Menthol] |  | the same as that of the natural form | had odor
